# Patent US20180228780A1, “3-(1H-PYRROLO[2,3-C]PYRIDIN-2-YL)-1H-INDAZOLES AND THERAPEUTIC USES THEREOF” (Samumed, LLC, priority 2015, published 2018)
# What was measured:
# Format in all cases: cell-based
# [1] = test system: Wnt activity (Sp5-Luc reporter, SW480 colon carcinoma cells); test: Screening assay for Wnt activity: Sp5-Luc reporter gene assay in SW480 cells; settings: Homo sapiens; for EC50: SW480 Sp5-Luc reporter, overnight incubation; for inhibition at 10 µM: SW480, read-out: percent inhibition at 10 μM
# Text: The screening assay for Wnt activity is described as follows. Reporter cell lines can be generated by stably transducing cancer cell lines (e.g., colon cancer) or primary cells (e.g., IEC-6 intestinal cells) with a lentiviral construct that includes a Wnt-responsive promoter driving expression of the firefly luciferase gene.
# SW480 colon carcinoma cells were transduced with a lentiviral vector expressing luciferase with a human Sp5 promoter consisting of a sequence of eight TCF/LEF binding sites. SW480 cells stably expressing the Sp5-Luc reporter gene and a hygromycin resistance gene were selected by treatment with 150 μg/mL of hygromycin for 7 days. These stably transduced SW480 cells were expanded in cell culture and used for all further screening activities. […] For Sp5-Luc reporter gene assays, the cells were plated at 4,000 cells/well in 384-well plates with medium containing 1% fetal bovine serum and incubated overnight at 37° C. and 5% CO2. Following incubation, 20 μl of BrightGlo luminescence reagent (Promega) was added to each well of the 384-well assay plates. The plates were placed on an orbital shaker for 2 min and then luminescence was quantified using the Envision (Perkin Elmer) plate reader. Readings were normalized to DMSO only treated cells, and normalized activities were utilized for EC50 calculations using the dose-response log (inhibitor) vs. response-variable slope (four parameters) nonlinear regression feature available in GraphPad Prism 5.0 (or Dotmatics).
# SW480 colon cancer cells = test: Cell viability assay (CellTiter-Blue) in SW480 colon cancer cells; settings: Homo sapiens; for EC50: 96 h, SW480 cell viability, four days incubation; for inhibition at 10 µM: SW480, read-out: percent inhibition at 10 μM
# Procedure: Representative compounds were screened using the following assay procedure to assess the effect on cell viability as described below.
# Approximately 2×10^3 SW480 colon cancer cells were seeded into each well and allowed to incubate in the presence or absence of compound for four days at 37° C./5% CO2. Eight replicates of DMSO-treated cells served as controls and cells treated with compound were performed in duplicate.
# After incubation, 20 μL of CellTiter-Blue (Promega) was added to each well allowed to incubate for approximately 3 hours. This reagent was a buffered solution which contains resazurin, metabolically active cells were able to reduce rezarurin (blue) into resorufin (pink) which was highly fluorescent. This measured fluorescence was used as a readout for cell viability.
# [2] = test system: Primary human fibroblasts derived from IPF patients (LL29 cells); test: Inhibition of the fibrotic process: αSMA staining in TGF-β1-treated LL29 fibroblasts; settings: Fibroblast, 96 h, LL29 cells, TGF-β1 20 ng/mL, 4 days, % αSMA-positive cells
# Text: Representative compounds were screened using primary human fibroblasts (derived from IFF patients) treated with TGF-β1 to determine their ability to inhibit the fibrotic process.
# K. L., et.al., “RhoA signaling modulates cyclin D1 expression in human lung fibroblasts; implications for idiopathic pulmonary fibrosis”, Respiratory Research (2006), 7(1), 88] were obtained from American Type Culture Collection (ATCC) and expanded in F12 medium supplemented with 15% Fetal Bovine Serum and Penicillin/Streptomycin.
# LL29 cells are plated at 1,500 cells/well in 80 μL/well F12 medium supplemented with 1% Fetal Bovine Serum. […] Wells treated with TGF-β1 and containing DMSO were used as controls. […] Following incubation for 4 days, SYTOX green nucleic acid stain (Life Technologies [Thermo Fisher Scientific]) was added to the wells at a final concentration of 1 μM and incubated at room temperature for 30 min.
# IL-6 (THP-1 cells) = test: IL-6 inhibition in THP-1 monocytes (HTRF); settings: Homo sapiens; for EC50: IL-6 inhibition, THP-1 cells, HTRF, 10-point dose-response starting from 10 μM; for inhibition at 10 µM: THP-1, read-out: percentage in parentheses printed under EC50 >10
# Procedure: Compound Screening: THP-1 cells were cultured in basal media with 1% FBS for 24 hours before the start of the assay. […] THP-1 cells were plated at 5000 cells/well in the 384-well plates and incubated at 37° C. for 2 h. 500 ng/mL of […] was added after 2 hours and cells were incubated for another 22 hours at 37° C. Plates were spun in a centrifuge for 1 minute at 10,000 rpm and a mixture of anti-IL6 XL665, and anti-IL6 Cryptate diluted in reconstitution buffer (Cisbio Inc.) was added to each well. Following incubation for 3 hrs at room temperature, Homogeneous Time-Resolved Fluorescence (HTRF) was measured using the Envision (Perkin Elmer) at 665 nm and […]. The ratio of fluorescence at 665 nm to 620 nm was used as a readout for IL6 quantification. All samples were processed in duplicate. Readings were normalized to DMSO treated cells and normalized activities were utilized for EC50 calculations using the dose-response log (inhibitor) vs. response-variable slope (four parameters) nonlinear regression feature available in GraphPad Prism 5.0 (or Dotmatics).
SMILES,EC50 [1] [nM],EC50 (SW480 colon cancer cells) [nM],EC50 [2] [nM],EC50 (IL-6 (THP-1 cells)) [nM],inhibition at 10 µM (IL-6 (THP-1 cells)) [%],inhibition at 10 µM [1] [%],inhibition at 10 µM (SW480 colon cancer cells) [%]
"Fc1cccc(-c2cncc3[nH]c(-c4n[nH]c5ccc(-c6cccnc6)cc45)cc23)c1 [Compound 4, 3-(4-(3-Fluorophenyl)-1H-pyrrolo[2,3-c]pyridin-2-yl)-5-(pyridin-3-yl)-1H-indazole]",395,1380,1630,783,,,
"CCCC(=O)Nc1cncc(-c2ccc3[nH]nc(-c4cc5c(-c6cccc(F)c6)cncc5[nH]4)c3c2)c1 [Compound 17, N-(5-(3-(4-(3-Fluorophenyl)-1H-pyrrolo[2,3-c]pyridin-2-yl)-1H-indazol-5-yl)pyridin-3-yl)butyramide]",200,282,254,87,,,
"Fc1cccc(-c2cncc3[nH]c(-c4n[nH]c5ccc(-c6ccncc6)cc45)cc23)c1 [Compound 18, 3-(4-(3-Fluorophenyl)-1H-pyrrolo[2,3-c]pyridin-2-yl)-5-(pyridin-4-yl)-1H-indazole]",2110,988,973,> 10000,54.3,,
"O=C(Nc1cncc(-c2ccc3[nH]nc(-c4cc5c(-c6cccc(F)c6)cncc5[nH]4)c3c2)c1)C1CCCCC1 [Compound 23, N-(5-(3-(4-(3-Fluorophenyl)-1H-pyrrolo[2,3-c]pyridin-2-yl)-1H-indazol-5-yl)pyridin-3-yl)cyclohexanecarboxamide]",620,513,193,108,,,
"CC(C)(C)C(=O)Nc1cncc(-c2ccc3[nH]nc(-c4cc5c(-c6ccc(F)cc6)cncc5[nH]4)c3c2)c1 [Compound 36, N-(5-(3-(4-(4-Fluorophenyl)-1H-pyrrolo[2,3-c]pyridin-2-yl)-1H-indazol-5-yl)pyridin-3-yl)pivalamide]",680,702,1090,6910,,,
"CN(C)Cc1cncc(-c2ccc3[nH]nc(-c4cc5c(-c6ccc(F)cc6)cncc5[nH]4)c3c2)c1 [Compound 41, 1-(5-(3-(4-(4-Fluorophenyl)-1H-pyrrolo[2,3-c]pyridin-2-yl)-1H-indazol-5-yl)pyridin-3-yl)-N,N-dimethylmethanamine]",3080,1170,1190,7050,,,
"CCCC(=O)Nc1cncc(-c2ccc3[nH]nc(-c4cc5c(-c6ccc(F)cc6)cncc5[nH]4)c3c2)c1 [Compound 45, N-(5-(3-(4-(4-Fluorophenyl)-1H-pyrrolo[2,3-c]pyridin-2-yl)-1H-indazol-5-yl)pyridin-3-yl)butyramide]",1510,1010,290,349,,,
"O=C(Nc1cncc(-c2ccc3[nH]nc(-c4cc5c(-c6ccc(F)cc6)cncc5[nH]4)c3c2)c1)C1CCC1 [Compound 49, N-(5-(3-(4-(4-Fluorophenyl)-1H-pyrrolo[2,3-c]pyridin-2-yl)-1H-indazol-5-yl)pyridin-3-yl)cyclobutanecarboxamide]",240,302,135,171,,,
"CC(C)C(=O)Nc1cncc(-c2ccc3[nH]nc(-c4cc5c(-c6ccccc6F)cncc5[nH]4)c3c2)c1 [Compound 65, N-(5-(3-(4-(2-Fluorophenyl)-1H-pyrrolo[2,3-c]pyridin-2-yl)-1H-indazol-5-yl)pyridin-3-yl)isobutyramide]",626,812,1250,263,,,
"Fc1ccccc1-c1cncc2[nH]c(-c3n[nH]c4ccc(-c5cncc(CN6CCCCC6)c5)cc34)cc12 [Compound 71, 3-(4-(2-Fluorophenyl)-1H-pyrrolo[2,3-c]pyridin-2-yl)-5-(5-(piperidin-1-ylmethyl)pyridin-3-yl)-1H-indazole]",4260,3420,2310,3300,,,
"CC(C)(C)CC(=O)Nc1cncc(-c2ccc3[nH]nc(-c4cc5c(-c6ccccc6F)cncc5[nH]4)c3c2)c1 [Compound 72, N-(5-(3-(4-(2-Fluorophenyl)-1H-pyrrolo[2,3-c]pyridin-2-yl)-1H-indazol-5-yl)pyridin-3-yl)-3,3-dimethylbutanamide]",730,693,593,1100,,,
CCCCC(=O)Nc1cncc(-c2ccc3[nH]nc(-c4cc5c(-c6ccccc6F)cncc5[nH]4)c3c2)c1 [Compound 75],1760,1180,1160,> 10000,39.1,,
"O=C(Nc1cncc(-c2ccc3[nH]nc(-c4cc5c(-c6ccccc6F)cncc5[nH]4)c3c2)c1)C1CCCC1 [Compound 78, N-(5-(3-(4-(2-Fluorophenyl)-1H-pyrrolo[2,3-c]pyridin-2-yl)-1H-indazol-5-yl)pyridin-3-yl)cyclopentanecarboxamide]",1240,1220,1410,6420,,,
"Fc1ccccc1-c1cncc2[nH]c(-c3n[nH]c4ccc(-c5cncc(CN6CCC(F)(F)C6)c5)cc34)cc12 [Compound 82, 5-(5-((3,3-Difluoropyrrolidin-1-yl)methyl)pyridin-3-yl)-3-(4-(2-fluorophenyl)-1H-pyrrolo[2,3-c]pyridin-2-yl)-1H-indazole]",630,923,648,796,,,
"Fc1ccccc1-c1cncc2[nH]c(-c3n[nH]c4ccc(-c5ccccn5)cc34)cc12 [Compound 84, 3-(4-(2-Fluorophenyl)-1H-pyrrolo[2,3-c]pyridin-2-yl)-5-(pyridin-2-yl)-1H-indazole]",> 10000,2160,1910,6480,,45.9,
O=C(Cc1ccccc1)Nc1cncc(-c2ccc3[nH]nc(-c4cc5c(-c6ccncc6)cncc5[nH]4)c3c2)c1 [Compound 122],> 10000,> 10000,1470,> 10000,47.8,21,8.6
"c1cc(-c2ccc3[nH]nc(-c4cc5c(-c6ccncc6)cncc5[nH]4)c3c2)ccn1 [Compound 130, 5-(Pyridin-4-yl)-3-(4-(pyridin-4-yl)-1H-pyrrolo[2,3-c]pyridin-2-yl)-1H-indazole]",> 10000,> 10000,1230,> 10000,20.5,24.7,16.6
"O=C(Nc1cncc(-c2ccc3[nH]nc(-c4cc5c(-c6ccncc6)cncc5[nH]4)c3c2)c1)C1CCCCC1 [Compound 135, N-(5-(3-(4-(Pyridin-4-yl)-1H-pyrrolo[2,3-c]pyridin-2-yl)-1H-indazol-5-yl)pyridin-3-yl)cyclohexanecarboxamide]",> 10000,> 10000,9980,1630,,20.8,6.1
"c1ccc(-c2ccc3[nH]nc(-c4cc5c(-c6ccncc6)cncc5[nH]4)c3c2)nc1 [Compound 140, 5-(Pyridin-2-yl)-3-(4-(pyridin-4-yl)-1H-pyrrolo[2,3-c]pyridin-2-yl)-1H-indazole]",1290,1060,750,177,,,
